Measurements: patent US20260327264A1, “PEPTIDE INHIBITORS OF INTERLEUKIN-23 RECEPTOR” (Zealand Pharma A/S, priority 2023, published 2026)
Where two headings read alike, the source gives them in different places. *1 amine or outer side, *2 acyl side, *3 side chain or, on linkers, in order; H or OH if unused. Where a SMILES comes first, the peptide text is derived from it. Bridges are numbered along the chain shown (N, C = ends). [ ]: non-standard residue; d: D form. 2Nal = N[C@@H](Cc1ccc2ccccc2c1)C(=O)O; AEF = NCCOc1ccc(C[C@H](N)C(=O)O)cc1; X1 = O=C(Cc1ccc(CN[*:1])cc1)[*:2]; 3Pal = N[C@@H](Cc1cccnc1)C(=O)O; αMeL = CC(C)C[C@](C)(N)C(=O)O; Dab = NCC[C@H](N)C(=O)O; Sar = CNCC(=O)O

Columns and labels:
[1] = tested on: IL-23 mediated IFN-γ secretion (human whole blood); assay: Functional inhibition of IL-23 mediated IFN-γ secretion in human whole blood; format: cell-based; settings: Table 3-5, hIL-23 EC80 with hIL-2 and hIL-18
Description: An in vitro human whole blood assay was used to assess the ability of IL23-R inhibitor compounds to inhibit IL-23-mediated IFN-γ secretion. The assay quantifies the functional antagonism of the IL23R inhibitors may be used to rank inhibitor potencies based on concentration response curves (CRCs) generated in the presence of fixed IL-23, IL-2 and IL-18 concentrations. […] and maximal inhibitory response may be calculated from the curves.
Human blood was obtained from voluntary donors at Blodbanken Hvidovre Hospital, Denmark on the day of the experiment by collection in BD Sodium-Heparin Vacutainer tubes [Cat #367876, Avantor].
The buffer used consisted of RPMI-1640 [Cat #61870-010; Thermo Fisher Scientific] supplemented with 1% V/V Penicillin-Streptomycin (Pen-Strep) Solution [Cat #15140; Thermo Fisher Scientific] and 1 mM Sodium Pyruvate [Cat #11360-039, Thermo Fisher Scientific] and 25 mM HEPES buffer [Cat #15630-056, Thermo Fisher Scientific] and 0.05% V/V Casein [Cat #C4765, Sigma-Aldrich] (hereafter referred to as assay buffer). […] A stimulatory solution of hIL-23 [Cat #11349-IL; R&D systems] corresponding to 4× the EC80 of hIL-23 (1.6 ng/ml) together with 4× hIL-2 [Cat #BT-002; R&D systems] (40 ng/ml) and 4× hIL-18 [Cat #9124-IL; R&D systems] (80 ng/ml) were also prepared in Assay buffer. To initiate the assay, 25 μL of the prepared 4× diluted test compound was added to the wells of a 96 well plate [Cat #167425; Thermo Scientific] followed by addition of 50 μL human whole blood to each well. Following the preincubation of the blood and inhibitor for 15 min in a cell incubator (37° C., 5% CO2), 25 μL of the prepared 4× stimulatory solution was added to each well and incubated for 16-24 hours in a humidity chamber in a cell incubator (37° C., 5% CO2).
To terminate the assay, 100 μL PBS pH 7.4 [Cat #10010-015; Thermo Fisher Scientific] was added to each well and the plate was spun at 350×G for ten minutes to pellet the blood. The supernatant was removed and added to a 96 well V-bottom Polypropylene plate [Corning 3363] using an 8-channel manual pipette.
Samples were diluted an additional 30× in Diluent 57 buffer from the MSD U-PLEX human IFN-γ assay [Cat #K151TTK-2; Mesoscale Discovery].
The IFN-γ level in the supernatant from the individual wells was determined using the MSD U-PLEX human IFN-γ assay kit [Cat #K151TTK-2; Mesoscale Discovery] and read on a Meso QuickPlex SQ 120 plate reader (Mesoscale Discovery).
For data analysis, raw data counts from the Meso QuickPlex SQ 120 plate reader were converted to concentrations of IFN-γ by using the standard curved supplied with the kit. Compound potency (IC50) and maximal inhibition (% inhibition) was estimated by computer-aided curve fitting using a 4-parameter logistic (4PL) non-linear mode. […] Maximal inhibition was expressed as a percentage where 0% is the activity level induced by the reference agonist alone ([…] together with IL-2 and IL-18 as indicated above), and 100% is the baseline activity level of the unstimulated receptor in the absence of the reference agonist.
Typically compounds with a low IC50 are desired. Typically compounds capable of completely inhibiting the IL23-induced response are desired.

[2] = tested on: IL-23 mediated STAT3 signalling (DB cells); assay: Functional inhibition of IL-23 mediated STAT3 signalling (phospho-STAT3 Tyr705) in DB cells; format: cell-based, human; settings: for hIL-23 (pSTAT3) antagonist % inhibition: Table 3-2, maximal inhibitory response, EC80 of hIL-23
Method in brief: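 DB cells preincubated 15 min with inhibitor at 37° C, 5% CO2, then stimulated 90 min with hIL-23 at EC80. Lysate phospho-STAT3 measured by MSD electrochemiluminescence. Signal normalized to IL-23-alone and buffer wells; IC50 and maximal inhibition from concentration–response curves.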

human IL-23R = target: T1, human IL-23R (Homo sapiens, UniProt Q5VWK5); assay: Binding assay: displacement of fluorophore (TAMRA)-labelled reference compound from human IL-23R (BRET, Nluc-IL23R fusion protein membranes); settings: for Emax: read-out: % displacement (hIL-23R binding); for potency of the compound (in words): potency against IL-23R
T1 construct: Nanoluc luciferase (Nluc); secretion signal encoded by the plasmid (not specified); expressed in transfected cells; crude membranes used in the assay
T1 sequence (Q5VWK5 22-629): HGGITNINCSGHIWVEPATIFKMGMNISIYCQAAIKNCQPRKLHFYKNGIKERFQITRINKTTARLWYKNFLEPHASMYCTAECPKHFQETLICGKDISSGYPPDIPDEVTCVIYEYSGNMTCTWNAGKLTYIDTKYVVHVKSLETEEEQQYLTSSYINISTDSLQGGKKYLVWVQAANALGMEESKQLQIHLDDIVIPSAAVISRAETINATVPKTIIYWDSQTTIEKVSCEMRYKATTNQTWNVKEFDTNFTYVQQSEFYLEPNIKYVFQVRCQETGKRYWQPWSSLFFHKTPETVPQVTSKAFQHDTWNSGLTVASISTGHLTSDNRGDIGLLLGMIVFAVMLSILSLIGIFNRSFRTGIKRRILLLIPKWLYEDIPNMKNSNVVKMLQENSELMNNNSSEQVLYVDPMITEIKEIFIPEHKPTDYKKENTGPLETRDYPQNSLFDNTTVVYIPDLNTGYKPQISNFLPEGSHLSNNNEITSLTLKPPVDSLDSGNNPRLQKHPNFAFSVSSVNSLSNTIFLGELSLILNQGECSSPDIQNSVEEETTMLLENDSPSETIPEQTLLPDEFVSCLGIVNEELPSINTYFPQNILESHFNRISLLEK

[3] = Table 3-2, EC80 of hIL-23, read-out: hIL-23 (pSTAT3) antagonist IC50
[4] = EC80 of hIL-23, read-out: IC50 (pSTAT3)

| Compound | IC50 [1] [nM] | maximal inhibition (%) [1] [%] | IC50 [2, 3] [nM] | hIL-23 (pSTAT3) antagonist % inhibition [2] [%] | Emax (human IL-23R) [%] | IC50 (human IL-23R) [nM] | IC50 [2, 4] [nM] | potency of the compound (in words) (human IL-23R) |
| --- | --- | --- | --- | --- | --- | --- | --- | --- |
| CNC(=O)[C@H](Cc1cccnc1)NC(=O)[C@H](CCN)NC(=O)[C@@H]1CCC(=O)NCc2ccc(cc2)CC(=O)N[C@@H](C)C(=O)N[C@H]2CCC(=O)NCC[C@H](NC(=O)[C@H](CCC(N)=O)NC(=O)[C@H](Cc3c[nH]c4ccccc34)NC2=O)C(=O)N[C@@H](Cc2c[nH]c3ncccc23)C(=O)N[C@@H](Cc2ccc3ccccc3c2)C(=O)NC(C)(C)C(=O)N1 [Compound 43, [4-Aminomethyl-phenylacetyl](1c)*AE(2c)WQ[Dab](2c)[7-AzaTrp][2-Nal][Aib]E(1c)[Dab][3-(3-Pyridyl)-Ala]-[NHMe]] | 3.9 | 102 | 0.54 | 98 | 101 | – | – | – |
| CNC(=O)CC[C@@H]1NC(=O)[C@H](Cc2c[nH]c3ccccc23)NC(=O)[C@@H]2CCC(=O)NCC[C@H](NC1=O)C(=O)N[C@@H](Cc1ccc(OCCN)cc1)C(=O)N[C@@H](Cc1ccc3ccccc3c1)C(=O)N[C@@](C)(CC(C)C)C(=O)N[C@H](C(=O)N[C@@H](CCN)C(=O)N[C@@H](Cc1cccnc1)C(=O)NC)CCC(=O)NCc1ccc(cc1)CC(=O)N[C@@H](CO)C(=O)N2 [Compound 29, [4-Aminomethyl-phenylacetyl](1c)*SE(2c)W[Q(Me)][Dab](2c)[Y(2-aminoethoxy)][2-Nal][2-Me-Leu]E(1c)[Dab][3-(3-Pyridyl)-Ala]-[NHMe]] ([X1]SEWE(NHMe)[Dab][AEF][2Nal][αMeL]E[Dab][3Pal]-NHMe; lactam 3-6, N-10) | 0.54 | 96 | 0.042 | 99 | 96 | 0.011 | – | – |
| CNC(=O)[C@H](Cc1cccnc1)NC(=O)[C@H](CCN)NC(=O)[C@@H]1CCC(=O)NCc2ccc(cc2)CC(=O)N[C@@H](CO)C(=O)N[C@H]2CCC(=O)NCC[C@H](NC(=O)[C@H](CCC(N)=O)NC(=O)[C@H](Cc3c[nH]c4ccccc34)NC2=O)C(=O)N[C@@H](Cc2ccc(OCCN)cc2)C(=O)N[C@@H](Cc2ccc3ccccc3c2)C(=O)N[C@@](C)(CC(C)C)C(=O)N1 [Compound 8, [4-Aminomethyl-phenylacetyl](1c)*SE(2c)WQ[Dab](2c)[Y(2-aminoethoxy)][2-Nal][2-Me-Leu]E(1c)[Dab][3-(3-Pyridyl)-Ala]-[NHMe]] | 0.33 | 96 | 0.053 | 101 | 103 | – | 0.053 | particularly potent |
| CNC(=O)[C@H](Cc1cccnc1)NC(=O)[C@H](CCN)NC(=O)[C@@H]1CCC(=O)NCc2ccc(cc2)CC(=O)N[C@@H](C)C(=O)N[C@H]2CCC(=O)NCC[C@H](NC(=O)[C@H](CCC(N)=O)NC(=O)[C@H](Cc3c[nH]c4ccccc34)NC2=O)C(=O)N[C@@H](Cc2ccc(OCCN)cc2)C(=O)N[C@@H](Cc2ccc3ccccc3c2)C(=O)N[C@@](C)(CC(C)C)C(=O)N1 [Compound 20, [4-Aminomethyl-phenylacetyl](1c)*AE(2c)WQ[Dab](2c)[Y(2-aminoethoxy)][2-Nal][2-Me-Leu]E(1c)[Dab][3-(3-Pyridyl)-Ala]-[NHMe]] | 0.64 | 97 | 0.026 | 101 | 97 | – | – | – |
| CC(C)C[C@]1(C)NC(=O)[C@H](Cc2ccc3ccccc3c2)NC(=O)[C@H](Cc2ccc(OCCN)cc2)NC(=O)[C@@H]2CCNC(=O)CC[C@H](NC(=O)[C@H](CO)NC(=O)Cc3ccc(cc3)CNC(=O)CC[C@@H](C(=O)N[C@@H](CCN)C(=O)N[C@@H](Cc3cccnc3)C(=O)N(C)CC(N)=O)NC1=O)C(=O)N[C@@H](Cc1c[nH]c3ccccc13)C(=O)N[C@@H](CCC(N)=O)C(=O)N2 [Compound 9, [4-Aminomethyl-phenylacetyl](1c)*SE(2c)WQ[Dab](2c)[Y(2-aminoethoxy)][2-Nal][2-Me-Leu]E(1c)[Dab][3-(3-Pyridyl)-Ala][Sar]-[NH2]] ([X1]SEWQ[Dab][AEF][2Nal][αMeL]E[Dab][3Pal][Sar]-NH2; lactam 3-6, N-10) | 0.21 | 97 | 0.025 | 97 | 100 | – | 0.025 | particularly potent |
